Series [1] can be described thus: Multiple escalating dose study, plasma pharmacokinetics, Cohorts 1-3. In kind it is in vivo, human.
Method: Healthy subjects aged 18 to 55 years were treated with an oral suspension of Compound 1 to study the safety, tolerability, pharmacokinetics and pharmacodynamics of Compound 1 in healthy subjects.
The study was a randomized, double-blind, placebo-controlled multiple escalating dose study comprised of 3 cohorts that each received an oral suspension. Each cohort consisted of two groups: one group treated with Compound 1 and another treated with placebo. In each cohort, the ratio of Compound 1-treated subjects to placebo-treated subjects was 3:1.
The Compound 1-treated subjects of Cohort 1 were treated with 15.0 mg of Compound 1 once per day (QD). The Compound 1-treated subjects of Cohort 2 were treated with 30.0 mg of Compound 1 QD. The Compound 1-treated subjects of Cohort 3 were treated with 60.0 mg of Compound 1 QD.
Patients in each cohort were treated with Compound 1 for 14 consecutive days, unless dosing was halted by the Safety Review Committee (SRC). The dosing of subjects in each of the cohorts was staggered with the decision to dose escalate based on SRC review of a minimum of 14 days of observation of safety and tolerability data and review of the available plasma PK data from the preceding cohort(s). Thus, dose escalation was predicated on tolerability of the prior cohorts.
Compound 1 was administered under fasted conditions (no food or drink, except water, for at least 10 hours prior to dosing). Immediately after administration of Compound 1, the subject was be administered 240 mL water. No additional fluid intake was allowed until 1 hour after Compound 1 administration.
Cohort 1 subjects received a single 15.0 mg dose of a Compound 1 suspension on the morning of Days 1-14. Cohort 2 subjects received a single 30.0 mg dose of a Compound 1 suspension on the morning of Days 1-14. Cohort 3 subjects received a single 60.0 mg dose of a Compound 1 suspension on the morning of Days 1-14. For all cohorts, the last treatment was administered on the morning of Day 14.
Plasma samples were analyzed to determine Compound 1 concentrations using a validated assay method. Pharmacokinetic variables (including but not limited to Cmax, Tmax and AUC(0-last)) were calculated using non-compartmental analysis. PK parameters for Compound 1 were derived from the plasma concentration data using non-compartmental analysis with Phoenix™ WinNonlin® v 8.0 (Pharsight Corporation, USA).
Blood (Cohorts 1-3): For each cohort, blood samples were collected on Days 1, 2, 3, 4, 5, 6 and 14 at the following time points: Day 1 at pre-dose (0 hour), 0.25, 0.5, 0.75, 1, 1.5, 2, 2.5, 3, 4, 6, 8, 12, 16 h post-dose; Day 2 at pre-dose (24 h), Day 3 at pre-dose (48 h), Day 4 at pre-dose (72 h), Day 5 at pre-dose (96 h), Day 6 at pre-dose (120 h); Day 14 at pre-dose 0.25, 0.5, 0.75, 1, 1.5, 2, 2.5, 3, 4, 6, 8, 12, 16, 24, 36, 48, and 72 hours. Trough level blood samples were collected on Days 2, 3, 4, 5, 6 and 14, prior to the morning dose administrations.
Descriptive statistics were calculated for plasma and urine PK parameter and concentration data, and summarized by study day and time point. Arithmetic means, coefficient of variation (CV), standard deviation, median, minimum, and maximum values, and number of observations were calculated for all PK parameters and trough concentration data. Except for Tmax, the geometric mean, geometric standard deviation, and geometric CV were provided for all PK parameter and concentration data. […]
For series [2], the system named is women that are perimenopausal with depression. Nature of the series: Open label trial, Hamilton Depression Rating Scale (HAM-D). In kind it is in vivo, human. The note with it: one patient. How it is done: (§1) The study is a two-week open label trial in women that are perimenopausal with depression during which patients were treated with an oral formulation of Compound 1 in adjunct to standard antidepressant treatment.
[…] Participants were administered daily doses of Compound 1 (up to 120 mg qPM, including 15 mg once a day, 20 mg once a day, 25 mg once a day, 30 mg once a day, 35 mg once a day, 40 mg once a day, 45 mg once a day, 50 mg once a day, 55 mg once a day, 60 mg once a day, 65 mg once a day, 70 mg once a day, 75 mg once a day, 80 mg once a day, 85 mg once a day, 90 mg once a day, 95 mg once a day, 100 mg once a day, 105 mg once a day, 110 mg once a day, 115 mg once a day and 120 mg once a day) for 14 days.
The Primary efficacy outcome was measured by the Hamilton Depression Rating Scale (HAM-D). The HAM-D was administered at baseline (Day 1, predose), Day 4, Day 8, Day 15, Day 21 and Day 28.
HAM-D Response was defined as a reduction from baseline of >50% in total HAM-D score. HAM-D remission was defined as a total HAM-D score of <7.

Series [3] shares this test system. In words: Open label trial, Perimenopausal Depression Questionnaire (Meno-D). The class given is in vivo, human. Particulars: one patient, 60 mg once a day.
From the text: The Meno-D is a perimenopausal depression rating scale consisting of 12 items, each items is scored on a 5-point scale (ranging from 0 to 4) (Kulkami J, et al., Development and validation of a new rating scale for perimenopausal depression-the Meno-D. Transl Psychiatry. 2018 Jun. 28; 8(1):123). The total score of the 12 items ranges from […] with higher scores indicating more severe perimenopausal depression. The MENO-D has five factors (or domains): Self (four items), Sexual (two items), Somatic (two items), Cognitive (two items) and Sleep (two items). MENO-D assesses the patient's self-esteem, sense of isolation, paranoid thinking, anxiety, interest in socialising, changes in libido and sexual activity, any decrease in energy, physical pain, changes in weight, subjective changes in memory and concentration, and increases in irritability and/or sleep disturbances.
as §1
(§2) Treatment Period: The treatment period was 14 days in duration. Participants were administered daily doses of Compound 1 (up to 120 mg qPM, including 15 mg once a day, 20 mg once a day, 25 mg once a day, 30 mg once a day, 35 mg once a day, 40 mg once a day, 45 mg once a day, 50 mg once a day, 55 mg once a day, 60 mg once a day, 65 mg once a day, 70 mg once a day, 75 mg once a day, 80 mg once a day, 85 mg once a day, 90 mg once a day, 95 mg once a day, 100 mg once a day, 105 mg once a day, 110 mg once a day, 115 mg once a day and 120 mg once a day) for 14 days.
(§3) Secondary outcome measure was by the Clinical Global Impression (CGI), DSM-V MDD Anxious Distress Specifier, the Hamilton Anxiety Rating Scale (HAM-A), the Montgomery-Asberg Depression Rating Scale (MADRS), the Perimenopausal Depression Questionnaire (Meno-D), the Pittsburgh Sleep Quality Index (PSQI), the revised Sabbastberg Sexual Function Scale, the Symptoms of Depression Questionnaire (SDQ), and a vasomotor symptom diary.

Series [4] has the same test system. Nature of the series: Open label trial, vasomotor symptom diary (hot flushes). The note with it: one patient, 60 mg once a day, by Day 4 (baseline 9 per day). The class given is in vivo, human. The method, then:
as §1, §2, §3

Series [5] has the same test system. In words: Open label trial, safety/tolerability. The class given is in vivo, human. Particulars: one patient, 60 mg dose once a day for 14 days. The method, then:
During the study, physical examination, vital signs, ECG, and clinical laboratory tests were conducted. The Modified Observers Assessment of Anesthesia and Sedation, (MOASS) and the Columbia Suicide were performed.

The conditions of series [6]: human, in vivo, 30 mg.
Method: (§4) The Day 1 dose was administered after a minimum of 10 hour fasting. No additional fluid intake was allowed until 1 hour after drug administration. A standard meal was given at least 4 hours post-dose. The Day 5 dose was administered following a high-fat, high calorie meal. Participants remained at the clinical site for a total of 8 days to complete PK sampling after the second dose.
(§5) Pharmacokinetic variables (including but not limited to Cmax, Tmax and AUC(0-last)) were calculated using non-compartmental analysis.
The nature of series [7]: Food Effect Cohort (Cohort 4), plasma pharmacokinetics fasted vs fed. Particulars: Cohort 4, single 30 mg.
Method: as §4, §5

Take `COC[C@@]1(O)CC[C@@]2(C)[C@@H](CC[C@@H]3[C@@H]2CC[C@]2(C)[C@@H](C(=O)Cn4ccnc4)CC[C@@H]32)C1` [Compound 1, 3α-Hydroxy-3β-methoxymethyl-21-(1′-imidazolyl)-5α-pregnan-20-one]: the “accumulation factor of the dosing interval (ratio of AUCDay14/AUCDay1)” value in series [1] (Cohort 1, 15.0 mg QD) was “approximately 1.25”. Besides, in series [1] (Cohort 1, 15.0 mg QD, Day 14 steady state, Geo Mean), the AUCinf was determined as 600.228 ng·h/mL. Besides, the “accumulation factor of the dosing interval (ratio of AUCDay14/AUCDay1)” value in series [1] (Cohort 2, 30.0 mg QD) was “approximately 1.25”. Further, in series [1] (human, in vivo, 15 mg), the AUC0-tau amounted to 361.762 ng·h/mL and the Cmax was found to be 56.016 ng/mL. The molecule also yielded an HAM-D score in series [2] (60 mg once a day for 14 days, Day 15 (baseline 28)) of 8. In addition, in series [2] (60 mg once a day for 14 days, adjunct to fluoxetine, Day 8), the “improvement in HAM-D score” value turned out to be 48%. The “improvement in HAM-D score from baseline value” in series [2] (60 mg once a day for 14 days, adjunct to fluoxetine, Day 15) amounted to 71%. Further, in series [2] (60 mg once a day, Day 15), the “HAM-D Remission criterion (total HAM-D score of <7)” value is recorded as “nearly met the HAM-D Remission criterion” and the “HAM-D Response criterion (reduction from baseline of >50%)” value was “met the HAM-D Response criterion”. Also, the “improvement in MENO-D from baseline value” in series [3] (Day 8 (baseline 28)) was determined as 54%. For the same molecule, in series [3] (Day 8 and Day 15), the MENO-D classification entry is listed as “no longer met classification for perimenopausal depression requiring clinical attention”. Further, in series [3] (Day 15), the “improvement in MENO-D factor Cognitive” value is recorded as 100%, the “improvement in MENO-D factor Self” value amounted to 63%, the “improvement in MENO-D factor Sexual” value is listed as 43% and the “improvement in MENO-D factor Sleep” value is 40%. Also, in series [3] (Day 15), the “improvement in MENO-D factor Somatic” value was determined as 50%. In addition, the “improvement in MENO-D from baseline value” in series [3] (Day 15 (baseline 28)) came out at 57%. Also, the “decrease in frequency of hot flushes” value in series [4] came out at 66%. Also, in series [5], the adverse event reported result was “mild epigastric pain after dosing” and the tolerability entry was “well-tolerated”. Further, the “Tmax, fasting compared to fed conditions” value in series [6] is given as “tendency for a shorter Tmax”. In addition, the “t1/2, fasted versus fed” value in series [7] was “similar”.

Consider `CNCCC(Oc1ccc(C(F)(F)F)cc1)c1ccccc1` (stereo not drawn) [fluoxetine, reference compound], for which the “clinical response of depression symptoms (HAM-D score and clinical evaluation)” value in series [2] (15 mg daily taken for 8 months, before Compound 1) was “had not demonstrated a sufficient clinical response”.

One may read the Cmax as the maximum level reached in the sampled fluid or tissue.

For the origin of these results see patent US20220125803A1, “METHODS FOR THE TREATMENT OF PERIMENOPAUSE AND MENOPAUSE” (Praxis Precision Medicines, Inc., priority 2019, published 2022).
